Experimental data reported in paper PMC9833666, “Designing and identifying β-hairpin peptide macrocycles with antibiotic potential” (Science Advances, 2023).
Like-named read-outs stand apart in the source and are kept apart here. Bridge positions count the residues as written; N and C are the ends. Peptide text beside a SMILES is read from it.

Test system: Escherichia coli W3110
Assay type: cell-based
Details: for Ec W3110 MIC MH: E. coli W3110, MH medium; for Ec W3110 MIC RPMI: E. coli W3110, RPMI medium

CC[C@H](C)[C@@H]1NC(=O)[C@H](CC(N)=O)NC(=O)[C@H]([C@@H](C)CC)NC(=O)[C@H](CCCCN)NC(=O)[C@H](C(C)C)NC(=O)[C@H](CCCNC(=N)N)NC(=O)[C@@H](N)CSSC[C@@H](C(=O)O)NC(=O)[C@H](CCC(=O)O)NC(=O)[C@H](C(C)C)NC(=O)[C@H](CCC(=O)O)NC(=O)[C@H](CC(C)C)NC(=O)[C@H](CCCNC(=N)N)NC(=O)[C@H](C(C)C)NC(=O)[C@H](CCCNC(=N)N)NC(=O)[C@H](CCCNC(=N)N)NC(=O)[C@H](CO)NC(=O)CNC(=O)[C@H](CC(N)=O)NC(=O)[C@H](CC(=O)O)NC1=O [SyRC-2] (H-CRVKINIDNGSRRVRLEVEC-OH; disulfide 1-20)
W3110 MIC (W3110): >256 µg/mL

CC[C@H](C)[C@@H]1NC(=O)[C@H](CCCNC(=N)N)NC(=O)[C@H]([C@@H](C)CC)NC(=O)[C@H](CCCNC(=N)N)NC(=O)[C@@H](N)CSSC[C@@H](C(=O)O)NC(=O)[C@H](CCC(=O)O)NC(=O)[C@H](C(C)C)NC(=O)[C@H](CCC(=O)O)NC(=O)[C@H](CC(C)C)NC(=O)[C@H](CCCNC(=N)N)NC(=O)[C@H](C(C)C)NC(=O)[C@H]([C@@H](C)O)NC(=O)CNC(=O)CNC(=O)[C@H](CCCNC(=N)N)NC(=O)[C@H](CC(=O)O)NC(=O)[C@H](CC(N)=O)NC(=O)[C@H](C(C)C)NC(=O)[C@H](CC(N)=O)NC1=O [SyRC-4] (H-CRIRINVNDRGGTVRLEVEC-OH; disulfide 1-20)
W3110 MIC (W3110): >256 µg/mL

CC[C@H](C)[C@@H]1NC(=O)[C@H](CC(=O)O)NC(=O)[C@H]([C@@H](C)CC)NC(=O)[C@H](CCCNC(=N)N)NC(=O)[C@H](C(C)C)NC(=O)[C@H](CCCNC(=N)N)NC(=O)[C@@H](N)CSSC[C@@H](C(=O)O)NC(=O)[C@H](CCC(N)=O)NC(=O)[C@H](CC(C)C)NC(=O)[C@H](CCC(N)=O)NC(=O)[C@H](CC(C)C)NC(=O)[C@H](CCCCN)NC(=O)[C@H](CC(C)C)NC(=O)[C@H](CCCNC(=N)N)NC(=O)[C@H](CCCNC(=N)N)NC(=O)[C@H](CCCNC(=N)N)NC(=O)CNC(=O)[C@H](CC(N)=O)NC(=O)[C@H](CC(N)=O)NC1=O [SyRC-5] (H-CRVRIDINNGRRRLKLQLQC-OH; disulfide 1-20)
W3110 MIC (W3110): >256 µg/mL

CC[C@H](C)[C@@H]1NC(=O)[C@H](CC(N)=O)NC(=O)[C@H](C(C)C)NC(=O)[C@H](CCCCN)NC(=O)[C@H]([C@@H](C)CC)NC(=O)[C@H](CCCNC(=N)N)NC(=O)[C@@H](N)CSSC[C@@H](C(=O)O)NC(=O)[C@H](CCC(=O)O)NC(=O)[C@H](CC(C)C)NC(=O)[C@H](CCC(=O)O)NC(=O)[C@H](CC(C)C)NC(=O)[C@H](CCCCN)NC(=O)[C@H](C(C)C)NC(=O)[C@H]([C@@H](C)O)NC(=O)[C@H](CCCNC(=N)N)NC(=O)[C@H](CCCNC(=N)N)NC(=O)[C@H](CCCNC(=N)N)NC(=O)[C@H](CC(N)=O)NC(=O)[C@H](CC(N)=O)NC1=O [SyRC-6] (H-CRIKVNINNRRRTVKLELEC-OH; disulfide 1-20)
W3110 MIC (W3110): >256 µg/mL

CC[C@H](C)[C@@H]1NC(=O)[C@H](CC(=O)O)NC(=O)[C@H](C(C)C)NC(=O)[C@H](CCCCN)NC(=O)[C@H]([C@@H](C)CC)NC(=O)[C@H](CCCNC(=N)N)NC(=O)[C@@H](N)CSSC[C@@H](C(=O)O)NC(=O)[C@H](CCC(=O)O)NC(=O)[C@H](CC(C)C)NC(=O)[C@H](CCC(N)=O)NC(=O)[C@H](CC(C)C)NC(=O)[C@H](CCCNC(=N)N)NC(=O)[C@H](C(C)C)NC(=O)[C@H](CCCNC(=N)N)NC(=O)CNC(=O)[C@H](CCCNC(=N)N)NC(=O)[C@H](CCCNC(=N)N)NC(=O)[C@H](CC(=O)O)NC(=O)[C@H](CC(=O)O)NC1=O [SyRC-7] (H-CRIKVDIDDRRGRVRLQLEC-OH; disulfide 1-20)
W3110 MIC (W3110): >256 µg/mL

CC[C@H](C)[C@@H]1NC(=O)[C@H](CC(N)=O)NC(=O)[C@H](C(C)C)NC(=O)[C@H](CCCCN)NC(=O)[C@H]([C@@H](C)CC)NC(=O)[C@H](CCCNC(=N)N)NC(=O)[C@@H](N)CSSC[C@@H](C(=O)O)NC(=O)[C@H](CCC(=O)O)NC(=O)[C@H](CC(C)C)NC(=O)[C@H](CCC(=O)O)NC(=O)[C@H](CC(C)C)NC(=O)[C@H](CCCNC(=N)N)NC(=O)[C@H](CC(C)C)NC(=O)[C@H](CCCNC(=N)N)NC(=O)[C@H](CCCNC(=N)N)NC(=O)[C@H](CO)NC(=O)[C@H](CCCNC(=N)N)NC(=O)[C@H](CC(=O)O)NC(=O)[C@H](CC(=O)O)NC1=O [SyRC-8] (H-CRIKVNIDDRSRRLRLELEC-OH; disulfide 1-20)
W3110 MIC (W3110): >256 µg/mL

CC[C@H](C)[C@@H]1NC(=O)[C@H](CCCNC(=N)N)NC(=O)[C@H](C(C)C)NC(=O)[C@H](CCCNC(=N)N)NC(=O)[C@@H](N)CSSC[C@@H](C(=O)O)NC(=O)[C@H](CCC(N)=O)NC(=O)[C@H](C(C)C)NC(=O)[C@H](CCC(N)=O)NC(=O)[C@H](CC(C)C)NC(=O)[C@H](CCCNC(=N)N)NC(=O)[C@H](C(C)C)NC(=O)[C@H]([C@@H](C)O)NC(=O)CNC(=O)[C@H](CO)NC(=O)CNC(=O)[C@H](CC(=O)O)NC(=O)[C@H](CC(N)=O)NC(=O)[C@H](C(C)C)NC(=O)[C@H](CC(N)=O)NC1=O [SyRC-10] (H-CRVRINVNDGSGTVRLQVQC-OH; disulfide 1-20)
W3110 MIC (W3110): >256 µg/mL

CC[C@H](C)[C@@H]1NC(=O)[C@H](CCCNC(=N)N)NC(=O)[C@H](C(C)C)NC(=O)[C@H](CCCNC(=N)N)NC(=O)[C@@H](N)CSSC[C@@H](C(=O)O)NC(=O)[C@H](CCC(N)=O)NC(=O)[C@H](C(C)C)NC(=O)[C@H](CCC(N)=O)NC(=O)[C@H](CC(C)C)NC(=O)[C@H](CCCCN)NC(=O)[C@H](CC(C)C)NC(=O)[C@H]([C@@H](C)O)NC(=O)CNC(=O)CNC(=O)[C@H](CCCNC(=N)N)NC(=O)[C@H](CC(N)=O)NC(=O)[C@H](CC(=O)O)NC(=O)[C@H](C(C)C)NC(=O)[C@H](CC(N)=O)NC1=O [SyRC-11] (H-CRVRINVDNRGGTLKLQVQC-OH; disulfide 1-20)
W3110 MIC (W3110): >256 µg/mL

CC[C@H](C)[C@@H]1NC(=O)[C@H](CCCNC(=N)N)NC(=O)[C@H]([C@@H](C)CC)NC(=O)[C@H](CCCNC(=N)N)NC(=O)[C@@H](N)CSSC[C@@H](C(=O)O)NC(=O)[C@H](CCC(=O)O)NC(=O)[C@H](C(C)C)NC(=O)[C@H](CCC(N)=O)NC(=O)[C@H](CC(C)C)NC(=O)[C@H](CCCNC(=N)N)NC(=O)[C@H](C(C)C)NC(=O)[C@H]([C@@H](C)O)NC(=O)CNC(=O)CNC(=O)CNC(=O)[C@H](CC(N)=O)NC(=O)[C@H](CC(=O)O)NC(=O)[C@H](C(C)C)NC(=O)[C@H](CC(N)=O)NC1=O [SyRC-12] (H-CRIRINVDNGGGTVRLQVEC-OH; disulfide 1-20)
W3110 MIC (W3110): >256 µg/mL

CC[C@H](C)[C@@H]1NC(=O)[C@H](CCCNC(=N)N)NC(=O)[C@H](C(C)C)NC(=O)[C@H](CCCNC(=N)N)NC(=O)[C@@H](N)CSSC[C@@H](C(=O)O)NC(=O)[C@H](CCC(=O)O)NC(=O)[C@H](C(C)C)NC(=O)[C@H](CCC(N)=O)NC(=O)[C@H](CC(C)C)NC(=O)[C@H](CCCCN)NC(=O)[C@H](CC(C)C)NC(=O)[C@H](CCCNC(=N)N)NC(=O)CNC(=O)[C@H](CO)NC(=O)[C@H](CCCNC(=N)N)NC(=O)[C@H](CC(N)=O)NC(=O)[C@H](CC(N)=O)NC(=O)[C@H](C(C)C)NC(=O)[C@H](CC(N)=O)NC1=O [SyRC-14] (H-CRVRINVNNRSGRLKLQVEC-OH; disulfide 1-20)
W3110 MIC (W3110): >256 µg/mL

CC(C)C[C@@H]1NC(=O)[C@H](CCC(=O)O)NC(=O)[C@H](CC(C)C)NC(=O)[C@H](CCCCN)NC(=O)[C@H](CC(C)C)NC(=O)[C@H](CCCNC(=N)N)NC(=O)[C@H](CCCNC(=N)N)NC(=O)CNC(=O)[C@H](CCCNC(=N)N)NC(=O)[C@H](CC(=O)O)NC(=O)[C@H](CC(=O)O)NC(=O)[C@H](C(C)C)NC(=O)[C@H](CC(N)=O)NC(=O)[C@H](C(C)C)NC(=O)[C@H](CCCCN)NC(=O)[C@H](C(C)C)NC(=O)[C@H](CCCNC(=N)N)NC(=O)[C@@H](N)CSSC[C@@H](C(=O)O)NC(=O)[C@H](CCC(N)=O)NC1=O [SyRC-15] (H-CRVKVNVDDRGRRLKLELQC-OH; disulfide 1-20)
W3110 MIC (W3110): >256 µg/mL

CC[C@H](C)[C@@H]1NC(=O)[C@H](CCCNC(=N)N)NC(=O)[C@@H](N)CSSC[C@@H](C(=O)O)NC(=O)[C@H](CCC(N)=O)NC(=O)[C@H](C(C)C)NC(=O)[C@H](CCC(N)=O)NC(=O)[C@H](CC(C)C)NC(=O)[C@H](CCCNC(=N)N)NC(=O)[C@H](C(C)C)NC(=O)[C@H](CCCNC(=N)N)NC(=O)[C@H](CCCNC(=N)N)NC(=O)[C@H](CCCNC(=N)N)NC(=O)[C@H](CCCNC(=N)N)NC(=O)[C@H](CC(N)=O)NC(=O)[C@H](CC(N)=O)NC(=O)[C@H](C(C)C)NC(=O)[C@H](CC(=O)O)NC(=O)[C@H](C(C)C)NC(=O)[C@H](CCCCN)NC1=O [SySA-1] (H-CRIKVDVNNRRRRVRLQVQC-OH; disulfide 1-20; N-terminus and C-terminus assumed)
Ec W3110 MIC MH: 128 µg/mL
Ec W3110 MIC RPMI: 64 µg/mL
W3110 MIC MH (E. coli W3110, standard Mueller-Hinton broth, 37°C, 18-24 h, median of n=3): 128 µg/mL
W3110 MIC RPMI (W3110): 64 µg/mL

CC[C@H](C)[C@@H]1NC(=O)[C@H](CCCNC(=N)N)NC(=O)[C@@H](N)CSSC[C@@H](C(=O)O)NC(=O)[C@H](CCC(N)=O)NC(=O)[C@H](C(C)C)NC(=O)[C@H](CCC(=O)O)NC(=O)[C@H](CC(C)C)NC(=O)[C@H](CCCNC(=N)N)NC(=O)[C@H](CC(C)C)NC(=O)[C@H](CCCNC(=N)N)NC(=O)[C@H](CCCNC(=N)N)NC(=O)CNC(=O)[C@H](CCCNC(=N)N)NC(=O)[C@H](CC(N)=O)NC(=O)[C@H](CC(N)=O)NC(=O)[C@H](C(C)C)NC(=O)[C@H](CC(N)=O)NC(=O)[C@H](C(C)C)NC(=O)[C@H](CCCCN)NC1=O [SySA-4] (H-CRIKVNVNNRGRRLRLEVQC-OH; disulfide 1-20; N-terminus and C-terminus assumed)
Ec W3110 MIC MH: 256 µg/mL
Ec W3110 MIC RPMI: 128 µg/mL
W3110 MIC RPMI (W3110): 128 µg/mL

CC[C@H](C)[C@@H]1NC(=O)[C@H](CC(N)=O)NC(=O)[C@H]([C@@H](C)CC)NC(=O)[C@H](CCCNC(=N)N)NC(=O)[C@H](C(C)C)NC(=O)[C@H](CCCNC(=N)N)NC(=O)[C@@H](N)CSSC[C@@H](C(=O)O)NC(=O)[C@H](CCC(N)=O)NC(=O)[C@H](CC(C)C)NC(=O)[C@H](CCC(N)=O)NC(=O)[C@H](CC(C)C)NC(=O)[C@H](CCCCN)NC(=O)[C@H](C(C)C)NC(=O)[C@H](CCCNC(=N)N)NC(=O)[C@H](CCCNC(=N)N)NC(=O)[C@H](CCCNC(=N)N)NC(=O)CNC(=O)[C@H](CC(N)=O)NC(=O)[C@H](CC(N)=O)NC1=O [SySA-7] (H-CRVRININNGRRRVKLQLQC-OH; disulfide 1-20; N-terminus and C-terminus assumed)
Ec W3110 MIC MH: 256 µg/mL
Ec W3110 MIC RPMI: 32 µg/mL
W3110 MIC MH (W3110): 256 µg/mL
W3110 MIC RPMI (W3110): 32 µg/mL
